# Reference: PMC10353061 (ACS Pharmacology & Translational Science, 2023)
# Assays:
# Myc = Myc and β-catenin expression (western blot, qPCR) in LiCl-treated HCT116 cells; assay type: cell-based, human; details: HCT116, LiCl 50 mM, 24 h
# Procedure: To this end, HCT116 cells were treated for 24 h with 50 mM LiCl and increasing concentrations (10–50–100 μM) of the two compounds.
# Figure 7 Top panels. […] Vinculin was used as a loading control. […] Bottom panels. c-Myc mRNA levels were measured by qPCR and normalized to the expression of β-actin mRNA and expressed as fold change relative to the control sample. Results represent the mean ± SD of three independent experiments, each performed in triplicate. **p < 0.01, ***p < 0.001 as determined by ANOVA.
# Briefly, total proteins from the cells in each group were subjected to 12% denaturing sodium dodecyl sulfate-polyacrylamide gel electrophoresis (SDS-PAGE). The proteins were then transferred onto a poly(vinylidene fluoride) (PVDF) membrane (Millipore). […] After the membrane was fully washed, it was incubated with secondary antibodies at 37 °C for 45 min goat anti-rabbit IgG H&L (HRP) (ab97051), Abcam, MA. The membrane was washed with Tris-buffered saline/Tween-20 (TBST) 4 times at room temperature for 14 min each time. Next, the samples were exposed and imaged (Sigma-Aldrich Chemical) using the enhanced chemiluminescence (ECL) method (Pierce Biotechnology).
# SW620 cells = assay: Inhibition of SW620 cells; assay type: cell-based; details: Homo sapiens, SW-620, in the combination 9 at constant 0.25 μM
# [1] = test system: β-catenin/Tcf-4 interaction; assay: Co-immunoprecipitation of β-catenin and Myc-tagged Tcf-4 in HCT116 cells; assay type: cell-based, human; details: HCT116 transfected with Myc-tagged Tcf-4, LiCl 50 mM, 50 μM, 24 h
# Procedure: Toward this end, we performed a co-immunoprecipitation study in HCT116 cells transfected with Myc-tagged Tcf-4, treated with the two compounds, and immunoprecipitated with Myc antisera.
# HCT116 cells were transiently transfected with the Myc-tagged Tcf-4 plasmid and treated with LiCl (50 mM) and 9 (50 μM) or 10 (50 μM) for 24 h. Lysates were immunoprecipitated using Myc-agarose beads and western blot analysis was performed. […] Myc-agarose beads saturated with the Myc-blocking peptide before immunoprecipitation were used as a negative control.
# Co-immunoprecipitation assays were performed as previously described.[16],[60] Briefly, 2 × 10^4/cm^2 HCT116 cells were seeded in a 100 mm dish and incubated overnight at 37 °C. Cells were transfected with pcDNA/Myc Tcf-4 (Addgene plasmid #16512; http://n2t.net/addgene:16512; RRID:Addgene_16512)[29] and, after overnight incubation, were starved for 8 h in a medium containing Opti-MEM (#31985070, Thermo Fisher Scientific), FBS 0.5%, pen/strep 1%, NaPyr 1%, NeAA 1%, and then co-treated with 50 mM LiCl and DMSO or 50 μM compound 9 or 50 μM compound […] for 24 h. Cells were collected at the end of the treatments and lysed in a buffer containing 0.5% Triton X-100, 0.5 mM EDTA, and 1 mM DTT. […] Chemioluminescence was detected using WesternBright ECL (#K-12045-D50, Advansta), according to the manufacturer’s protocol.
smiles,measurement,setting,value
"O=S(=O)(Nc1ccc(-c2ccccn2)cc1)c1ccc(Br)cc1 [Compound 9, 4-Bromo-N-(4-(pyridin-2-yl)phenyl)benzenesulfonamide]",inhibition of Myc expression,Myc; 10 μM,about 2.5 fold
same,protein and mRNA levels of Myc,Myc; 10–50–100 μM,significant dose-dependent inhibition
same,β-catenin protein levels,Myc; 10–50–100 μM,reduced only at the highest dose
same,EC50,SW620 cells,37 µM
same,association between β-catenin and Tcf-4 (co-immunoprecipitation),[1],completely abrogated the association
